The numbers were not newly measured in patent publication US20100022659A1, “Methods and Compositions for the Treatment of CNS-Related Conditions” (priority 2004, published 2010), which cites them from elsewhere.

For this data set the following is noted: humans, cited from earlier work.
Setting [1] is: MAO inhibitors/GAPDHais, Table 2.

Where two headings read alike, the source gives them in different places.

As to `C#CCN[C@@H]1CCc2ccccc21` [N-propargyl-1(R)-aminoindan/Rasageline, N-propargyl-1(R)-aminoindan], the “Human PK” value under setting [1] was 1.8 h.
Regarding `CC(N)C12CC3CC(CC(C3)C1)C2` (stereo not shown) [Rimantadine, 1-(1-aminoethyl)adamantane], the “Human PK” value (NMDAr antagonists, Table 1) was 25 h.
Regarding Desmethyldeprenyl, under setting [1], the “Human PK” value was 3.8 to 9.5 h.
With `CC12CC3CC(C)(C1)CC(N)(C3)C2` [Memantine, 1-amino-3,5-dimethyladamantane], for the setting “NMDAr antagonists, Table 1”, the “Human PK” value is 56 h.
